What was measured:
[1] = molecular target: Bone morphogenetic protein receptor type-1B (Homo sapiens) (UniProt O00238); details: Compound concentration 1000.0 nM
[2] = molecular target: ALK tyrosine kinase receptor (Homo sapiens) (UniProt Q9UM73); details: Compound concentration 1000.0 nM
[3] = molecular target: Non-receptor tyrosine-protein kinase TNK1 (Homo sapiens) (UniProt Q13470); details: Compound concentration 1000.0 nM
[4] = molecular target: 5'-AMP-activated protein kinase catalytic subunit alpha-2 (Homo sapiens) (UniProt P54646); details: Compound concentration 1000.0 nM
[5] = molecular target: Cyclin-dependent kinase-like 3 (Homo sapiens) (UniProt Q8IVW4); details: Compound concentration 1000.0 nM
[6] = molecular target: Casein kinase I isoform alpha-like (Homo sapiens) (UniProt Q8N752); details: Compound concentration 1000.0 nM
[7] = molecular target: Macrophage colony-stimulating factor 1 receptor (Homo sapiens) (UniProt P07333); details: Compound concentration 1000.0 nM
[8] = molecular target: Serine/threonine-protein kinase SIK2 (Homo sapiens) (UniProt Q9H0K1); details: Compound concentration 1000.0 nM
[9] = molecular target: Epithelial discoidin domain-containing receptor 1 (Homo sapiens) (UniProt Q08345); details: Compound concentration 1000.0 nM
[10] = system: Receptor-type tyrosine-protein kinase FLT3 (Homo sapiens), P36888 [R834Q]; details: Compound concentration 1000.0 nM
[11] = molecular target: Casein kinase I isoform delta (Homo sapiens) (UniProt P48730); details: Compound concentration 1000.0 nM
[12] = molecular target: Serine/threonine-protein kinase PLK3 (Homo sapiens) (UniProt Q9H4B4); details: Compound concentration 1000.0 nM
[13] = molecular target: Cyclin-dependent kinase 15 (Homo sapiens) (UniProt Q96Q40); details: Compound concentration 1000.0 nM
[14] = molecular target: Cyclin-G-associated kinase (Homo sapiens) (UniProt O14976); details: Compound concentration 1000.0 nM
[15] = molecular target: Wee1-like protein kinase 2 (Homo sapiens) (UniProt P0C1S8); details: Compound concentration 1000.0 nM
[16] = molecular target: Tyrosine-protein kinase Blk (Homo sapiens) (UniProt P51451); details: Compound concentration 1000.0 nM
[17] = molecular target: Protein-tyrosine kinase 2-beta (Homo sapiens) (UniProt Q14289); details: Compound concentration 1000.0 nM
[18] = molecular target: Calcium/calmodulin-dependent protein kinase kinase 1 (Homo sapiens) (UniProt Q8N5S9); details: Compound concentration 1000.0 nM
[19] = molecular target: RAC-alpha serine/threonine-protein kinase (Homo sapiens) (UniProt P31749); details: Compound concentration 1000.0 nM
[20] = molecular target: Serine/threonine-protein kinase DCLK3 (Homo sapiens) (UniProt Q9C098); details: Compound concentration 1000.0 nM
[21] = molecular target: Serine/threonine-protein kinase Chk2 (Homo sapiens) (UniProt O96017); details: Compound concentration 1000.0 nM
[22] = molecular target: Protein kinase C iota type (Homo sapiens) (UniProt P41743); details: Compound concentration 1000.0 nM
[23] = molecular target: Cyclin-dependent kinase 3 (Homo sapiens) (UniProt Q00526); details: Compound concentration 1000.0 nM
[24] = molecular target: D(2) dopamine receptor (Homo sapiens) (UniProt P14416); details: Compound concentration 10.0 uM
[25] = molecular target: LIM domain kinase 2 (Homo sapiens) (UniProt P53671); details: Compound concentration 1000.0 nM
[26] = molecular target: Citron Rho-interacting kinase (Homo sapiens) (UniProt O14578); details: Compound concentration 1000.0 nM
[27] = molecular target: MAP kinase-interacting serine/threonine-protein kinase 2 (Homo sapiens) (UniProt Q9HBH9); details: Compound concentration 1000.0 nM
[28] = molecular target: Interleukin-1 receptor-associated kinase 3 (Homo sapiens) (UniProt Q9Y616); details: Compound concentration 1000.0 nM
[29] = molecular target: Cyclin-dependent kinase 13 (Homo sapiens) (UniProt Q14004); details: Compound concentration 1000.0 nM
[30] = molecular target: Alpha-2A adrenergic receptor (Homo sapiens) (UniProt P08913); details: Compound concentration 10.0 uM
[31] = molecular target: Serine/threonine-protein kinase TNNI3K (Homo sapiens) (UniProt Q59H18); details: Compound concentration 1000.0 nM
[32] = system: Tyrosine-protein kinase ABL1 (Homo sapiens), P00519 [H396P]; details: Compound concentration 1000.0 nM
[33] = molecular target: Cyclin-dependent kinase 5 (Homo sapiens) (UniProt Q00535); details: Compound concentration 1000.0 nM
[34] = system: Tyrosine-protein kinase ABL1 (Homo sapiens), P00519 [T315I]; details: Compound concentration 1000.0 nM
[35] = molecular target: Dual specificity mitogen-activated protein kinase kinase 5 (Homo sapiens) (UniProt Q13163); details: Compound concentration 1000.0 nM
[36] = molecular target: cGMP-dependent protein kinase 2 (Homo sapiens) (UniProt Q13237); details: Compound concentration 1000.0 nM
[37] = molecular target: Serine/threonine-protein kinase/endoribonuclease IRE1 (Homo sapiens) (UniProt O75460); details: Compound concentration 1000.0 nM
[38] = molecular target: Alpha-1B adrenergic receptor (Homo sapiens) (UniProt P35368); details: Compound concentration 10.0 uM
[39] = molecular target: 5-hydroxytryptamine receptor 5A (Homo sapiens) (UniProt P47898); details: Compound concentration 10.0 uM
[40] = molecular target: Cyclin-dependent kinase-like 1 (Homo sapiens) (UniProt Q00532); details: Compound concentration 1000.0 nM
[41] = molecular target: Aurora kinase A (Homo sapiens) (UniProt O14965); details: Compound concentration 1000.0 nM

Chain of Cyclin-dependent kinase 15 (Homo sapiens) (Q96Q40 whole entry): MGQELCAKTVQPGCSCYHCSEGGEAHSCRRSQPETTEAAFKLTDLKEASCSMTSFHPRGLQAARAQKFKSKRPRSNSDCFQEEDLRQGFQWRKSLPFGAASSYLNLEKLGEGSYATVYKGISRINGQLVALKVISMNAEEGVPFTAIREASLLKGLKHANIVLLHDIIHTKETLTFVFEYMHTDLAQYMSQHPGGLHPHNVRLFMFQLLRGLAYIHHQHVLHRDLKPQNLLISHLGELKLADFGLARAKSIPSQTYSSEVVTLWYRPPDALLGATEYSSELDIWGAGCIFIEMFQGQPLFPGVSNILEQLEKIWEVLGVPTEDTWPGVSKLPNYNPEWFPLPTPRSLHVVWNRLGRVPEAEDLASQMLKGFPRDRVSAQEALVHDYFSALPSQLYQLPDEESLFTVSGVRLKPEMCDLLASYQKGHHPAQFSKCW
Chain of Cyclin-dependent kinase-like 3 (Homo sapiens) (Q8IVW4 whole entry, looked up, canonical isoform): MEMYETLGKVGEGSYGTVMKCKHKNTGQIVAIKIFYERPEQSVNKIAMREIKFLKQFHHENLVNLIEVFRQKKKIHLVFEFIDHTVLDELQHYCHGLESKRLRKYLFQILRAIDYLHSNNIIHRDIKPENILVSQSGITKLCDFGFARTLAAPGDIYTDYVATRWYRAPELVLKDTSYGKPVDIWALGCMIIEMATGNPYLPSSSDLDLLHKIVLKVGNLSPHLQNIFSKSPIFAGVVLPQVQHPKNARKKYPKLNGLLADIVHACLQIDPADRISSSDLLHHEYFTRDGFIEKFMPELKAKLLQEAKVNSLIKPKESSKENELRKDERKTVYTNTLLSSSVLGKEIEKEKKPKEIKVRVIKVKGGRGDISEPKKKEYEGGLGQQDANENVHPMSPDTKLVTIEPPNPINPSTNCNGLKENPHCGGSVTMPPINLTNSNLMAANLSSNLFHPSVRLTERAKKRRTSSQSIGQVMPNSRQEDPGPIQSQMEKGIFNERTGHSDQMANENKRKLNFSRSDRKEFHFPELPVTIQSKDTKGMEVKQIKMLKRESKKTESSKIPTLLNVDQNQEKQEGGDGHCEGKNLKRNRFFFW
Chain of Alpha-1B adrenergic receptor (Homo sapiens) (P35368 whole entry): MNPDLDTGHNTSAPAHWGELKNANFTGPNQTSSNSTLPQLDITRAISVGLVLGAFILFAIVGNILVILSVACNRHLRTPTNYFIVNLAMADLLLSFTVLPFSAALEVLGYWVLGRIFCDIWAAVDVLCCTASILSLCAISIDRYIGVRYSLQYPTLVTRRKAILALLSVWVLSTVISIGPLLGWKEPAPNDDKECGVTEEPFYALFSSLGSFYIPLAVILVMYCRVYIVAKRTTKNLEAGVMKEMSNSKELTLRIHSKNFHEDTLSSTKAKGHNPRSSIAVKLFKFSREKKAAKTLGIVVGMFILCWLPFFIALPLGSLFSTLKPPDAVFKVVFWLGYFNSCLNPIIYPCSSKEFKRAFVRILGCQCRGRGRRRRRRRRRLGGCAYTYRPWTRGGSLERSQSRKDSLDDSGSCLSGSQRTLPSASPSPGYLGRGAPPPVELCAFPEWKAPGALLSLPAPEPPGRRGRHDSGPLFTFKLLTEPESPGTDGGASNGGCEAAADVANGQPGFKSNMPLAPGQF
Chain of Protein kinase C iota type (Homo sapiens) (P41743 whole entry): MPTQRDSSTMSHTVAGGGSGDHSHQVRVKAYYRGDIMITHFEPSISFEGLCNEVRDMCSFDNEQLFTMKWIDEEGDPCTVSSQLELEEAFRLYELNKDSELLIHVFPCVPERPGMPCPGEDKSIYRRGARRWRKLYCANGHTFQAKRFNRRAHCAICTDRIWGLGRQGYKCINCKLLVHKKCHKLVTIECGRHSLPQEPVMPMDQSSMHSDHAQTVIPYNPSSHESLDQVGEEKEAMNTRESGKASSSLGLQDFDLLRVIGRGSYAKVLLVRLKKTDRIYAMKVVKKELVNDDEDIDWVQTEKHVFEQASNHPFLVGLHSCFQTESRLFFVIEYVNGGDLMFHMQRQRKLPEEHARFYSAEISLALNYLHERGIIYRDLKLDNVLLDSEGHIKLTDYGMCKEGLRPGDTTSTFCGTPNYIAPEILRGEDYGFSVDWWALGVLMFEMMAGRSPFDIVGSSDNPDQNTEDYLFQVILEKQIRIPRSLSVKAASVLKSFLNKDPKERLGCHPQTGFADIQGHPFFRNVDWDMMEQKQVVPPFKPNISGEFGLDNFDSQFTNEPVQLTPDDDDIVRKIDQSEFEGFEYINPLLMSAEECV
Chain of Bone morphogenetic protein receptor type-1B (Homo sapiens) (O00238 whole entry): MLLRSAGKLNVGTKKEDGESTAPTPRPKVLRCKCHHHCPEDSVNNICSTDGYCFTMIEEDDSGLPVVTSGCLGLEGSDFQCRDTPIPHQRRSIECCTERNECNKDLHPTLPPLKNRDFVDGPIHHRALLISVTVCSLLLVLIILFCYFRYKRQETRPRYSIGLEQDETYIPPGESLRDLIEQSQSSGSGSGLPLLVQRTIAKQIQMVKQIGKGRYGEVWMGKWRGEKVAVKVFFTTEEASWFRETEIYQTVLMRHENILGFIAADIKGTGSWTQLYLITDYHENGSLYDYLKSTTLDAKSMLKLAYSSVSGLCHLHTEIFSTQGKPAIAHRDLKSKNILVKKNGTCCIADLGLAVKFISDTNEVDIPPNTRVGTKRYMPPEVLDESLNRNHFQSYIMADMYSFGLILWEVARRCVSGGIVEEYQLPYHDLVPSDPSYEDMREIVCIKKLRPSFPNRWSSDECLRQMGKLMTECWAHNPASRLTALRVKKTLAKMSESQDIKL
Chain of Tyrosine-protein kinase Blk (Homo sapiens) (P51451 2-505 limits assumed): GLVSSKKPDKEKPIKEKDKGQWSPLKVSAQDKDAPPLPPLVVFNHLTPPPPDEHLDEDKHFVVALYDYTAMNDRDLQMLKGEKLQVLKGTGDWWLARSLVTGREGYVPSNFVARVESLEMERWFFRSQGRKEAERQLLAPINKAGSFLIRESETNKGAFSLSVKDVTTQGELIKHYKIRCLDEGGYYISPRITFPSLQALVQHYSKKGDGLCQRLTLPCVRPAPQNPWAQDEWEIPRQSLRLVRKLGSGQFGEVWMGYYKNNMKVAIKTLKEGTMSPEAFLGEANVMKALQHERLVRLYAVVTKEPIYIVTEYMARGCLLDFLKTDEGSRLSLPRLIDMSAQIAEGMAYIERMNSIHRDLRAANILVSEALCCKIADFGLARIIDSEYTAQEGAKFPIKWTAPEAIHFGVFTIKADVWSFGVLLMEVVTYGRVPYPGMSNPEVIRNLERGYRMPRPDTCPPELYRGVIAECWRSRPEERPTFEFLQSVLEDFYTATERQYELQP
Chain of Cyclin-dependent kinase 5 (Homo sapiens) (Q00535 whole entry, looked up): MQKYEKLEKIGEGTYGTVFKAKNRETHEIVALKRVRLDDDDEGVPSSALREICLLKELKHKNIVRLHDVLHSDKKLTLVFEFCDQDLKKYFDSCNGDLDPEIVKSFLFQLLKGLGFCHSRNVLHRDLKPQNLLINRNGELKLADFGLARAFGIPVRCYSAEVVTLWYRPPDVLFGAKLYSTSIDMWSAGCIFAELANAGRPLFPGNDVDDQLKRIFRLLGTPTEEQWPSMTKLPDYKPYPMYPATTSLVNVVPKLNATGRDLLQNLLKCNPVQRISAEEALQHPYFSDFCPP
Chain of MAP kinase-interacting serine/threonine-protein kinase 2 (Homo sapiens) (Q9HBH9 whole entry, looked up): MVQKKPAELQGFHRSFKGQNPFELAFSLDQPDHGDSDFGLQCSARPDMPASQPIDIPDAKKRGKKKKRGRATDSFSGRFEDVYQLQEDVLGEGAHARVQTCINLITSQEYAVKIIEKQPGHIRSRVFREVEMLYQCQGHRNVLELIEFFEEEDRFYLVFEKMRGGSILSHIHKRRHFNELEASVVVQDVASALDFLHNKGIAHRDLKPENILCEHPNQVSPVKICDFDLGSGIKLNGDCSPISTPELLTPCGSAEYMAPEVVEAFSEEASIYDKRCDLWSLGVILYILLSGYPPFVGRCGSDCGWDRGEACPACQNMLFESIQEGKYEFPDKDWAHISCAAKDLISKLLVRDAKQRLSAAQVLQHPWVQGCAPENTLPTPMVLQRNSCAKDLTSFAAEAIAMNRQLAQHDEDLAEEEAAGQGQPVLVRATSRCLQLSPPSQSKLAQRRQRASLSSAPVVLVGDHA
Chain of Serine/threonine-protein kinase DCLK3 (Homo sapiens) (Q9C098 whole entry): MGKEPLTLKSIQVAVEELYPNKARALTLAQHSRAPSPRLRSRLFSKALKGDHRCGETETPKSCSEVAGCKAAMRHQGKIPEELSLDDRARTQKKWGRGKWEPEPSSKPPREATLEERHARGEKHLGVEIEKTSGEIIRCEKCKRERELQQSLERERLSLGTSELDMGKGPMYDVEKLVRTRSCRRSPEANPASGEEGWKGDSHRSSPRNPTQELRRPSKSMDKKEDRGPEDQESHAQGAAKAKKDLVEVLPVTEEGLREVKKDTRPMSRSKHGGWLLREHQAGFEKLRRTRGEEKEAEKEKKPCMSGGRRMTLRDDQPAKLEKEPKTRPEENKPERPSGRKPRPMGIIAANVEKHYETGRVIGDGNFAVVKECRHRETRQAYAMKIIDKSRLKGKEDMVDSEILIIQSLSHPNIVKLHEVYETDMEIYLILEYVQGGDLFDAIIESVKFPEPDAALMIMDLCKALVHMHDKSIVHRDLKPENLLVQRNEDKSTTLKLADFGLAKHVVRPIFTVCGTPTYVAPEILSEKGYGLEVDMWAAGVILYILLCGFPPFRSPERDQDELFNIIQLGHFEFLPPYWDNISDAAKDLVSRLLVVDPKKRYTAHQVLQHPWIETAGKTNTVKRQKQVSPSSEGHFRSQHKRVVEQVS
Chain of Cyclin-dependent kinase 3 (Homo sapiens) (Q00526 whole entry, looked up): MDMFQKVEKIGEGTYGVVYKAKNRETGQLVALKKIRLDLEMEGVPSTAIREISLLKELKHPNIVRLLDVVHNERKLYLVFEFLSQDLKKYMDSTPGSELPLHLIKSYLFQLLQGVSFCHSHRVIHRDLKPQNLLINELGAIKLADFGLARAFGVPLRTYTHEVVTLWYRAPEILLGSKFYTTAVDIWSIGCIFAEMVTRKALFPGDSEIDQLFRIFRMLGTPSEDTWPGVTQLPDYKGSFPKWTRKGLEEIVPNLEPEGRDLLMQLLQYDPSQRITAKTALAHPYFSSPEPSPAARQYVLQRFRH

O=C(O)[C@@H]1[C@@H](Cn2nnc3ccccc3c2=O)CC[C@H]1C(=O)c1ccc(OCCC2CCOCC2)cc1 [BAY-694]
inactive: residual activity [1] 78% | residual activity [2] 100% | residual activity [3] 100% | residual activity [4] 100% | residual activity [5] 98% | residual activity [6] 100% | residual activity [7] 100% | residual activity [8] 91% | residual activity [9] 100% | residual activity [10] 100% | residual activity [11] 100% | residual activity [12] 87% | residual activity [13] 100% | residual activity [14] 91% | residual activity [15] 100% | residual activity [16] 95% | residual activity [17] 100% | residual activity [18] 100% | residual activity [19] 75% | residual activity [20] 100% | residual activity [21] 100% | residual activity [22] 100% | residual activity [23] 100% | inhibition [24] -5.06% | residual activity [25] 100% | residual activity [26] 92% | residual activity [27] 99% | residual activity [28] 100% | residual activity [29] 92% | inhibition [30] 5.09% | residual activity [31] 94% | residual activity [32] 84% | residual activity [33] 81% | residual activity [34] 100% | residual activity [35] 73% | residual activity [36] 100% | residual activity [37] 88% | inhibition [38] 6.29% | inhibition [39] 1.33% | residual activity [40] 100% | residual activity [41] 100%

O=C(O)[C@H]1[C@H](Cn2nnc3ccccc3c2=O)CC[C@@H]1C(=O)c1ccc(OCCC2CCOCC2)cc1 [BAY-7598]
inactive: residual activity [1] 95% | residual activity [2] 100% | residual activity [3] 100% | residual activity [4] 100% | residual activity [5] 87% | residual activity [6] 100% | residual activity [7] 81% | residual activity [8] 100% | residual activity [9] 100% | residual activity [10] 96% | residual activity [11] 100% | residual activity [12] 100% | residual activity [13] 100% | residual activity [14] 100% | residual activity [15] 100% | residual activity [16] 100% | residual activity [17] 75% | residual activity [18] 81% | residual activity [19] 83% | residual activity [20] 98% | residual activity [21] 100% | residual activity [22] 66% | residual activity [23] 100% | inhibition [24] 30.3% | residual activity [25] 90% | residual activity [26] 77% | residual activity [27] 83% | residual activity [28] 77% | residual activity [29] 93% | inhibition [30] -5.14% | residual activity [31] 100% | residual activity [32] 100% | residual activity [33] 100% | residual activity [34] 100% | residual activity [35] 100% | residual activity [36] 100% | residual activity [37] 82% | inhibition [38] 7.47% | inhibition [39] 6.91% | residual activity [40] 99% | residual activity [41] 97%

— ChEMBL document CHEMBL4507264, “Data for DCP probe BAY-7598” (2021)
